Test results taken from patent US8099262B2, “Estimation of clinical cut-offs” (priority 2004, dated 2012).
Entries after “also recorded” stand apart in the source; their conditions may differ. Where two headings read alike, the source gives them in different places.

Tests used:
Assay type in all cases: in vivo
HIV [1] = test system: HIV; set-up: key to effect range (difference between maximum and minimum effect, log viral load): log viral load drop; max effect (FC 1) minus min effect (plateau); Linear Regression Higher CO / Linear Regression Lower CO: unit not given here
Excerpt: Databases of studies for patients with tenofovir containing regimens and consisting of patient baseline demographic characteristics, clinical outcome results with viral load and resistance data (Fold change), were retrieved and remapped according to a common structure allowing a meta-analysis. The structure consisted of baseline sequence, viral load data set, viral load measurements and sampling dates (for example viral load within 3 months of starting new regimen and viral load assessment 8 and/or 24 weeks after beginning new regimen), CD4+ data set which contains CD4+ counts and sampling dates, resistance data set containing the fold changes to different antivirals and sampling dates; patient data set with patient information such as age, gender, race, treatment history; treatment data set with drug regimens, start and stop dates, doses, formulations, frequency of intake, regimen changes after resistance tests. The structure of such a clinical data base can be seen in FIG. 1a.
The viral load response data includes censored (<400 copies/ml) values. Parameters of the underlying uncensored distribution were estimated by maximum likelihood estimation in SAS (proc lifereg). The viral load response data are corrected for baseline viral load and cPSS.
(§1) The models applied were linear regression, logistic regression, and a classification tree. These models also took into account effects of the concomitant HIV drugs (PSS), baseline viral load (Baseline Log(V1)i) and, optionally, treatment history in order to avoid bias introduced by imbalances of important characteristics. From the models, a prediction of clinical outcome could be made at different levels of the baseline fold change resistance.
In the linear regression model, the proposed equation was the following: LogVL dropi=β0+β1*Baseline Log(V1)i+β2*PSSi+β3*(1/FC)i+ξi where i represented the patient, β0 the intercept, β1, β2 and β3 coefficients indicated the increase in log viral load drop per unit increase of respectively the baseline log VL, the number of sensitive drugs in the background regimen and the inverse of the baseline fold change. ξi was a random error term indicating the deviation of the patient from the value predicted by the model. Interactions between all the factors were evaluated and other baseline characteristics, i.e treatment history, were added if relevant.
When viral load results under the detection limits are obtained, biases could be introduced if the detection limit values are considered when calculating viral load drops and using those in the linear regression model. To avoid this, censoring needed to be taken into account and therefore the PROC LIFEREG facility in the SAS package was employed.
Clinical responses were predicted in the models developed in previous step 2. […] In order to determine the fold changes at which clinically relevant diminished clinical responses can be observed, three definitions of clinical cut-offs were considered:
(§2) The maximum effect was defined as the treatment effect at fold change 1, and the minimum effect was defined as the treatment effect at a very high fold change (i.e. when the curve reached a plateau). The effect range was then the difference between the maximum effect and the minimum effect.

HIV [2] = assay: Logistic regression model of probability of success/failure as a function of baseline fold change resistance (clinical cut-offs)
Excerpt: In such a method, Prob of success is preferably calculated by performing a logistic regression analysis using data from a clinical response dataset, wherein Prob of success is modelled according to the following equation: […]
as §1, with “The clinical outcome results (drop in viral load and response rate) were modelled as a function of baseline fold change (FC) as determined by virtual phenotype (see WO01/79540 and WO02/33402; also http://www.vircolab.com). The models” for “The models”
In the logistic regression, the proposed equation was the following: […]
However, by binning the viral load into successes and failures, part of the information of the continuous variable viral load is lost. Estimates are also corrected for covariates as for linear regression.
as §2
The lower and higher cutoffs are defined as the fold change associated with an expected 20% and 80% decrease respectively of the reference activity of the drug within the regimen.

HIV [3] = test system: HIV; set-up: key to Modelled Lower Cutoff & Confidence Interval / Modelled Upper Cutoff & Confidence Interval: fold change (FC) matching VL drop at 20% and 80% loss of activity; conditions: preferred embodiment of linear regression
Excerpt: In a preferred embodiment of the linear regression model, more factors are included in order to obtain a more refined prediction of viral load response. These factors include for example a sensitivity score per drug class in addition to the overall sensitivity score of the background treatment (cPSS), previous exposure to the drug (naïve (Yes/No), naïve to PIs, naïve to NRTI's, etc. . . . ). Furthermore, in the preferred embodiment, the fold change is transformed before inserting the figures into the model. The transformation to the fold change comprises a power-transformation ranging from FC^−3 to FC^1. In addition, a quadratic term in cPSS is preferably added.
The NRTI[naïve] value represents whether the patient is naïve to nucleoside RT inhibitors. If yes, value=1, if no, value=0. The PSS[NRTI} represents the phenotypic sensitivity score for NRTIs, i.e the number of active NRTIs in the background regimen for the patient.
Stage 3: Determine Fold change equivalent to VL drop at 20% and 80% loss of activity by inserting values for VL drop into the above equation and calculating FC. […]

[4] = Definition 1, Subgroup 2: PSS = 0, baseline Log (VL) = 4
[5] = Definition 1, Subgroup 3: PSS = 2, baseline Log (VL) = 5
[6] = Definition 2, Overall (whole population)
[7] = Definition 2, Subgroup 1: PSS = 2, baseline Log (VL) = 4
[8] = Definition 2, Subgroup 2: PSS = 0, baseline Log (VL) = 4
[9] = Definition 2, Subgroup 3: PSS = 2, baseline Log (VL) = 5
[10] = Definition 2, two active drugs besides the drug, baseline Log(VL) of 4
[11] = Definition 3, Subgroup 1: PSS = 2, baseline Log (VL) = 4
[12] = Definition 3, Subgroup 2: PSS = 0, baseline Log (VL) = 4
[13] = Definition 3, Subgroup 3: PSS = 2, baseline Log (VL) = 5
[14] = preliminary linear regression analysis, virologic response at 8 weeks

In the case of `CC(C)OC(=O)OCOP(=O)(CO[C@H](C)Cn1cnc2c(N)ncnc21)OCOC(=O)OC(C)C.O=C(O)/C=C/C(=O)O` [TDF], the “Linear Regression Lower CO (clinical cut-off, fold change)” value (HIV [1]; Definition 1, Subgroup 1: PSS = 2, baseline Log (VL) = 4) was 3.73, the “Linear Regression Higher CO (clinical cut-off, fold change)” value (HIV [1]; Definition 1, Subgroup 1: PSS = 2, baseline Log (VL) = 4, listed as Tenofovir) was “>assay” and the “Linear Regression Higher CO (clinical cut-off, fold change)” value (HIV [1]; Definition 1, Subgroup 1: PSS = 2, baseline Log (VL) = 4, listed as tenofovir) was “No higher cut-off could be derived; also recorded: >assay”. For the same compound, the “Linear Regression Higher CO” value (HIV [1]; [4]) was 3.8, the “Linear Regression Lower CO” value (HIV [1]; [4]) was 1.68 and the “Linear Regression Higher CO” value (HIV [1]; [5]) was “>assay”. For the same compound, the “Linear Regression Lower CO” value (HIV [1]; [5]) was “>assay”, the “Linear Regression Higher CO” value (HIV [1]; [6]) was 5 and the “Linear Regression Lower CO” value (HIV [1]; [6]) was 1.25. For the same compound, the “Linear Regression Higher CO” value (HIV [1]; [7]) was 5, the “Linear Regression Lower CO” value (HIV [1]; [7]) was 1.25 and the “Linear Regression Higher CO” value (HIV [1]; [8]) was 5. The “Linear Regression Lower CO” value (HIV [1]; [8]) was 1.25, the “Linear Regression Higher CO” value (HIV [1]; [9]) was 5 and the “Linear Regression Lower CO” value (HIV [1]; [9]) was 1.25. The “drop in log viral load at fold change 1” value (HIV [1]; [10]) was −1.48, the “drop in log viral load at the maximum (asymptotic) fold change” value (HIV [1]; [10]) was −0.28 and the “effect range (difference between maximum and minimum effect, log viral load)” value (HIV [1]; [10]) was 1.2. For the same compound, the “Linear Regression Higher CO” value (HIV [1]; Definition 3, Overall) was 5, the “Linear Regression Lower CO” value (HIV [1]; Definition 3, Overall) was 1.1 and the “Linear Regression Higher CO” value (HIV [1]; [11]) was 5. The “Linear Regression Lower CO” value (HIV [1]; [11]) was 1.1, the “Linear Regression Higher CO” value (HIV [1]; [12]) was 5 and the “Linear Regression Lower CO” value (HIV [1]; [12]) was 1.1. The “Linear Regression Higher CO” value (HIV [1]; [13]) was 5, the “Linear Regression Lower CO” value (HIV [1]; [13]) was 1.1 and the “VIROLOGIC RESPONSE Baseline FC for 80% REDUCTION of response (upper cutoff)” value (HIV [1]; preliminary linear regression analysis, definition 2) was 2.5. For the same compound, the “VIROLOGIC RESPONSE 20% REDUCTION (fold change, preliminary VirtualPhenotype Clinical Cutoff)” value (HIV [1]; [14]) was 1.2, the “VIROLOGIC RESPONSE 80% REDUCTION (fold change, preliminary VirtualPhenotype Clinical Cutoff)” value (HIV [1]; [14]) was 2.5 and the “lower cut-off derived from the Table” value (HIV [1]; summary over models, 2 active drugs besides the drug, baseline log(VL) of 4) was 1.2. For the same compound, the “Logistic Regression Higher CO” value (HIV [2]; [7]) was 3.81, the “Logistic Regression Lower CO” value (HIV [2]; [7]) was 1.2 and the “Logistic Regression Higher CO” value (HIV [2]; [8]) was 3.36. For the same compound, the “Logistic Regression Lower CO” value (HIV [2]; [8]) was 1.16, the “Logistic Regression Higher CO” value (HIV [2]; [9]) was 3.4 and the “Logistic Regression Lower CO” value (HIV [2]; [9]) was 1.17. The “Logistic Regression Lower CO” value (HIV [2]; Definition 3, Overall) was 1.2, the “Logistic Regression Higher CO” value (HIV [2]; [11]) was 3.81 and the “Logistic Regression Lower CO” value (HIV [2]; [11]) was 1.2. The “Logistic Regression Higher CO” value (HIV [2]; [12]) was 3.36, the “Logistic Regression Lower CO” value (HIV [2]; [12]) was 1.2 and the “Logistic Regression Higher CO” value (HIV [2]; [13]) was 3.4. For the same compound, the “Logistic Regression Lower CO” value (HIV [2]; [13]) was 1.2, the “Modelled Lower Cutoff & Confidence Interval” value (HIV [3]) was 1.0 and the “Modelled Upper Cutoff & Confidence Interval” value (HIV [3]) was 2.0.
